Molecules are shown by their SMILES. Counter-ions that a name gives are not always drawn.

Test [1] has as its system Enterobacter cloacae P99. The test is described as follows: Minimum Inhibitory Concentration (MIC) by serial dilution in agar. The format is cell-based. As for the experimental part:
(§1) Minimum Inhibitory Concentration (MIC) values of compounds of the invention against Enterobacter cloacae P99 and Pseudomonas aeruginosa Charlier were determined by serial dilution in agar. The plates were inoculated with 10⁴ colony forming units and incubated overnight at 37°C. The MIC values recorded in Table 1 were the lowest concentration of antibiotic to inhibit growth. Comparative data for 7β-[2-(3,4-diacetoxyphenyl)-2-[4-ethyl-2,3-dioxopiperazin-1-yl)carbonylamino]-acetamido]-7α-formamido-3-[1-methyl-1H-tetrazol-5-yl) thiomethyl]ceph-3-em-4-carboxylic acid, sodium salt (compound A), disclosed in European Patent Application No.82303821.1 (Publication Number 0 071 395; Example 57), are also given.

For test [2], the system named is Pseudomonas aeruginosa Charlier. The description is as above. It counts as cell-based. The following applies: 10⁴ colony forming units, incubated overnight at 37°C, lowest concentration to inhibit growth. As for the experimental part: as §1

What is called MIC is the smallest concentration in the dilution series that meets the test's criterion for growth inhibition. Low readings indicate greater potency, high ones weaker potency. With `CCN1CCN(C(=O)NC(C(=O)N[C@]2(NC=O)C(=O)N3C(C(=O)O)=C(CSc4nnnn4C)CS[C@@H]32)c2ccc(OC(C)=O)c(OC(C)=O)c2)C(=O)C1=O` (stereo partly drawn) [Compound A, 7β-[2-(3,4-diacetoxyphenyl)-2-[4-ethyl-2,3-dioxopiperazin-1-yl)carbonylamino]acetamido]-7α-formamido-3-[1-methyl-1H-tetrazol-5-yl) thiomethyl]ceph-3-em-4-carboxylic acid, sodium salt, reference compound], the MIC in test [1] worked out at 8 µg/mL; in test [2], 4 µg/mL.

For `CCN1CCN(C(=O)N[C@@H](C(=O)N[C@]2(NC=O)C(=O)N3C(C(=O)O)=C(CSc4nnnn4N)CS[C@@H]32)c2ccc(OC(C)=O)c(OC(C)=O)c2)C(=O)C1=O` [Example 1, Sodium 3-[(1-Amino-1H-tetrazol-5-yl)thiomethyl]-7β-[D-2-(3,4-diacetoxyphenyl)-2-[(4-ethyl-2,3-dioxopiperazin-1-yl)carbonylamino]acetamido]-7α-formamidoceph-3-em-4-carboxylate], the MIC in test [1] and in test [2] was 2 µg/mL in each case.

On to `CCN1CCN(C(=O)N[C@@H](C(=O)N[C@]2(NC=O)C(=O)N3C(C(=O)O)=C(CSc4nnnn4N)CS[C@@H]32)c2ccc(O)c(O)c2)C(=O)C1=O` [Example 2, Sodium 3-[(1-Amino-1H-tetrazol-5-yl)thiomethyl]-7β-[D-2-(3,4-dihydroxyphenyl)-2-[(4-ethyl-2,3-dioxopiperazin-1-yl)carbonylamino]acetamido]-7α-formamidoceph-3-em-4-carboxylate], for which the MIC in test [1] is 4 µg/mL; in test [2], 2 µg/mL.

These data come from patent EP0308559A2, “Cephalosporins, process for their preparation, pharmaceutical compositions containing them and intermediates” (BEECHAM GROUP PLC, priority 1987, dated 1989).
